Measurements as given in patent US11111237B2, “Bicyclic compound and use thereof” (SK BIOPHARMACEUTICALS CO., LTD., priority 2019, dated 2021).

molecular target: PRMT5-MEP50 enzyme complex (Homo sapiens (Human), UniProt O14744); assay: PRMT5 enzyme activity in vitro assay (methylation of histone H4R3, ELISA absorbance at 450 nm); assay type: biochemical; conditions: SAM, histone H4 peptide, room temperature 2 hours, 8 points from 10 μM to 0.128 nM
How it was run: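 IC50 was derived from ELISA absorbance at 450 nm, using primary and HRP antibodies against H4R3 methylation on immobilised histone H4 peptide (residues 1-20). Compounds (10 μM to 0.128 nM, 8 points, 1:5) were incubated 2 h at room temperature with the PRMT5-MEP50 complex and SAM, diluted to 5 μg/mL and 2 μM respectively.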

Sequence of PRMT5-MEP50 enzyme complex (O14744 2-637): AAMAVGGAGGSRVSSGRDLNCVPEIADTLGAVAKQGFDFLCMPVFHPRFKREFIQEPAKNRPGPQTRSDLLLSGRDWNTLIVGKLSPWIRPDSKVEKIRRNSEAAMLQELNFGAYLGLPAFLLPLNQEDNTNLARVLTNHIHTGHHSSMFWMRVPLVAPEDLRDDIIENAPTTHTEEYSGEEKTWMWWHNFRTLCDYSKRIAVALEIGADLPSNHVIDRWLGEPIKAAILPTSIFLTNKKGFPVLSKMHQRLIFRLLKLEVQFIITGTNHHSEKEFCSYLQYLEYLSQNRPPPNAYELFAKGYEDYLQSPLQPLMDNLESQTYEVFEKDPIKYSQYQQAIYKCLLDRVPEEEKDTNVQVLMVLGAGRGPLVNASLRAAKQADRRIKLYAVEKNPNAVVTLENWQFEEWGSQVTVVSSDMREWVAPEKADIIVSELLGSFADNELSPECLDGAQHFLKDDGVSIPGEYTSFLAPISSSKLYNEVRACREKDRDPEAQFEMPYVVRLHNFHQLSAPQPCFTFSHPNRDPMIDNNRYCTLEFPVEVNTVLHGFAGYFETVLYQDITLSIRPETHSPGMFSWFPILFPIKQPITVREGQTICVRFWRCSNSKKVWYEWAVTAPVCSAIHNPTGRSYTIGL
Sequence of PRMT5-MEP50 enzyme complex (Q9BQA1 2-342 partner): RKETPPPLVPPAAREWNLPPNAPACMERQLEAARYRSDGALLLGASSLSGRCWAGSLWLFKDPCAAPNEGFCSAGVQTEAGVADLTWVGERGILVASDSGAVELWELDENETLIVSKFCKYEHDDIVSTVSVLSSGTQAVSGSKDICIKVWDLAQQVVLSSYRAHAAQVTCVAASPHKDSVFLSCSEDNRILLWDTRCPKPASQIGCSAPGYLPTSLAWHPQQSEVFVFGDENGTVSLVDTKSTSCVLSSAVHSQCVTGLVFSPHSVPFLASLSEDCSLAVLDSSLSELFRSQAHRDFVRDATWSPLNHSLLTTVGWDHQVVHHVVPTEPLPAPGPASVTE

| SMILES | IC50 [nM] |
| --- | --- |
| COCCN1CCC(Oc2ccc3c(c2)O[C@H](C)CN(C[C@H](O)CN2CCc4ccccc4C2)C3=O)CC1 [Example 224, (2R)-4-[(2R)-3-(3,4-dihydro-1H-isoquinolin-2-yl)-2-hydroxy-propyl]-8-[[1-(2-methoxyethyl)-4-piperidyl]oxy]-2-methyl-2,3-dihydro-1,4-benzoxazepin-5-one] | 100 to 1000 |
| CC1(C)CN(C[C@H](O)CN2CCc3ccccc3C2)C(=O)c2ccc(C(=O)N3CCn4cccc4C3)cc2O1 [Example 209, 4-[(2R)-3-(3,4-dihydro-1H-isoquinolin-2-yl)-2-hydroxy-propyl]-8-(3,4-dihydro-1H-pyrrolo[1,2-a]pyrazine-2-carbonyl)-2,2-dimethyl-3H-1,4-benzoxazepin-5-one] | 100 to 1000 |
| C[C@H]1CN(C[C@H](O)CN2CCc3ccccc3C2)C(=O)c2ccc(OC3CCN(CCF)CC3)cc2O1 [Example 202, (2S)-4-[(2R)-3-(3,4-dihydro-1H-isoquinolin-2-yl)-2-hydroxy-propyl]-8-[1-(2-fluoroethyl)-4-piperidyl]oxy-2-methyl-2,3-dihydro-1,4-benzoxazepin-5-one] | 1 to 100 |
| CC1(C)CN(C[C@H](O)CN2CCc3ccccc3C2)C(=O)c2ccc(CN3CCCC3)cc2O1 [Example 179, 4-[(2R)-3-(3,4-dihydro-1H-isoquinolin-2-yl)-2-hydroxy-propyl]-2,2-dimethyl-8-(pyrrolidin-1-ylmethyl)-3H-1,4-benzoxazepin-5-one] | 100 to 1000 |
| CN1CCC(Oc2ccc3c(c2)N(C)CCN(C[C@H](O)CN2CCc4ccccc4C2)C3=O)CC1 [Example 125, 4-[(2R)-3-(3,4-dihydro-1H-isoquinolin-2-yl)-2-hydroxy-propyl]-1-methyl-8-[(1-methyl-4-piperidyl)oxy]-2,3-dihydro-1,4-benzodiazepin-5-one] | 100 to 1000 |
| COCCN1CCC(Oc2ccc3c(n2)OC(C)(C)CN(C[C@H](O)CN2CCc4ccccc4C2)C3=O)CC1 [Example 262, 4-[(2R)-3-(3,4-dihydro-1H-isoquinolin-2-yl)-2-hydroxy-propyl]-8-[[1-(2-methoxyethyl)-4-piperidyl]oxy]-2,2-dimethyl-3H-pyrido[3,2-f][1,4]oxazepin-5-one] | 100 to 1000 |
| CN(C1CCC(Oc2ccc3c(c2)OCCN(C[C@H](O)CN2CCc4ccccc4C2)C3=O)CC1)C1COC1 (stereo partly drawn) [Example 198, 4-[(2R)-3-(3,4-dihydro-1H-isoquinolin-2-yl)-2-hydroxypropyl]-8-[4-[methyl(oxetan-3-yl)amino]cyclohexoxy]-2,3-dihydro-1,4-benzoxazepin-5-one] | 1 to 100 |
| CC1(C)CN(C[C@H](O)CN2CCc3ccccc3C2)C(=O)c2ccc(C(=O)N3CC4CC3CO4)cc2O1 (stereo partly drawn) [Example 204, 4-[(2R)-3-(3,4-dihydro-1H-isoquinolin-2-yl)-2-hydroxy-propyl]-2,2-dimethyl-8-(2-oxa-5-azabicyclo[2.2.1]heptan-5-carbonyl)-3H-1,4-benzoxazepin-5-one] | 100 to 1000 |
| CC(=O)N1CC(Oc2ccc3c(c2)O[C@H](C)CN(C[C@H](O)CN2CCc4ccccc4C2)C3=O)C1 [Example 142, (2R)-8-(1-acetylazetidin-3-yl)oxy-4-[(2R)-3-(3,4-dihydro-1H-isoquinolin-2-yl)-2-hydroxypropyl]-2-methyl-2,3-dihydro-1,4-benzoxazepin-5-one] | 1 to 100 |
| CCN(CC)Cc1ccc2c(c1)OCCN(C[C@H](O)CN1CCc3ccccc3C1)C2=O [Example 26, 8-(diethylaminomethyl)-4-[(2R)-3-(3,4-dihydro-1H-isoquinolin-2-yl)-2-hydroxy-propyl]-2,3-dihydro-1,4-benzoxazepin-5-one] | 100 to 1000 |
| C[C@@H]1CN(C[C@H](O)CN2CCc3ccccc3C2)C(=O)c2ccc(OC3CCN(CCO)CC3)cc2O1 [Example 219, (2R)-4-[(2R)-3-(3,4-dihydro-1H-isoquinolin-2-yl)-2-hydroxy-propyl]-8-[[1-(2-hydroxyethyl)-4-piperidyl]oxy]-2-methyl-2,3-dihydro-1,4-benzoxazepin-5-one] | 1 to 100 |
| CC1(C)CN(C[C@H](O)CN2CCc3ccccc3C2)C(=O)c2ccc(OC3CCN(C=O)CC3)cc2O1 [Example 181, 4-[[4-[(2R)-3-(3,4-dihydro-1H-isoquinolin-2-yl)-2-hydroxy-propyl]-2,2-dimethyl-5-oxo-3H-1,4-benzoxazepin-8-yl]oxy]piperidine-1-carbaldehyde] | 100 to 1000 |
| C[C@@H]1CN(C[C@H](O)CN2CCc3ccccc3C2)C(=O)c2ccc(OC3CCN(CC(C)(C)O)CC3)cc2O1 [Example 220, (2R)-4-[(2R)-3-(3,4-dihydro-1H-isoquinolin-2-yl)-2-hydroxy-propyl]-8-[[1-(2-hydroxy-2-methyl-propyl)-4-piperidyl]oxy]-2-methyl-2,3-dihydro-1,4-benzoxazepin-5-one] | 100 to 1000 |
| O=C1c2ccc(OCc3ccncc3F)cc2OCCN1C[C@H](O)CN1CCc2ccccc2C1 [Example 62, 4-[(2R)-3-(3,4-dihydro-1H-isoquinolin-2-yl)-2-hydroxy-propyl]-8-[(3-fluoro-4-pyridyl)methoxy]-2,3-dihydro-1,4-benzoxazepin-5-one] | 1 to 100 |

Results, then the compound that gave them:

| IC50 [nM] | SMILES |
| --- | --- |
| 1 to 100 | CC(C)N1CCC(Oc2ccc3c(c2)OCCN(C[C@H](O)CN2CCc4ccccc4C2)C3=O)CC1 [Example 89, 4-[(2R)-3-(3,4-dihydro-1H-isoquinolin-2-yl)-2-hydroxy-propyl]-8-[(1-isopropyl-4-piperidyl)oxy]-2,3-dihydro-1,4-benzoxazepin-5-one] |
| 1 to 100 | O=C1c2ccc(OC3CCN(C4CC4)CC3)cc2OCCN1C[C@H](O)CN1CCc2ccccc2C1 [Example 90, 8-[(1-cyclopropyl-4-piperidyl)oxy]-4-[(2R)-3-(3,4-dihydro-1H-isoquinolin-2-yl)-2-hydroxy-propyl]-2,3-dihydro-1,4-benzoxazepin-5-one] |
| 100 to 1000 | COC1CN(Cc2ccc3c(c2)OCCN(C[C@H](O)CN2CCc4ccccc4C2)C3=O)C1 [Example 29, 4-[(2R)-3-(3,4-dihydro-1H-isoquinolin-2-yl)-2-hydroxy-propyl]-8-[(3-methoxyazetidin-1-yl)methyl]-2,3-dihydro-1,4-benzoxazepin-5-one] |
| 1000 to 10000 | O=C1c2ccc(CN3CCCC(CO)C3)cc2OCCN1C[C@H](O)CN1CCc2ccccc2C1 (stereo partly drawn) [Example 37, 4-[(2R)-3-(3,4-dihydro-1H-isoquinolin-2-yl)-2-hydroxy-propyl]-8-[[3-(hydroxymethyl)-1-piperidyl]methyl]-2,3-dihydro-1,4-benzoxazepin-5-one] |
| 100 to 1000 | O=C1c2ccc(F)cc2OCCN1C[C@H](O)CN1CCc2ccccc2C1 [Example 150, 4-[(2R)-3-(3,4-dihydro-1H-isoquinolin-2-yl)-2-hydroxy-propyl]-8-fluoro-2,3-dihydro-1,4-benzoxazepin-5-one] |
| 100 to 1000 | O=C1c2ccc(OC3CN(C4COC4)C3)cc2OCCN1C[C@H](O)CN1CCc2ccccc2C1 [Example 96, 4-[(2R)-3-(3,4-dihydro-1H-isoquinolin-2-yl)-2-hydroxy-propyl]-8-[1-(oxetan-3-ylyl)azetidin-3-yl]oxy-2,3-dihydro-1,4-benzoxazepin-5-one] |
| 1 to 100 | CC(=O)N1CC=C(c2ccc3c(c2)OCCN(C[C@H](O)CN2CCc4ccccc4C2)C3=O)CC1 [Example 16, 8-(1-acetyl-3,6-dihydro-2H-pyridin-4-yl)-4-[(2R)-3-(3,4-dihydro-1H-isoquinolin-2-yl)-2-hydroxy-propyl]-2,3-dihydro-1,4-benzoxazepin-5-one] |
| 100 to 1000 | O=C1c2ccc(C3CCOCC3)cc2OCCN1C[C@H](O)CN1CCc2ccccc2C1 [Example 21, 4-[(2R)-3-(3,4-dihydro-1H-isoquinolin-2-yl)-2-hydroxy-propyl]-8-tetrahydropyran-4-yl-2,3-dihydro-1,4-benzoxazepin-5-one] |
| 100 to 1000 | CN1CCC(Oc2ccc3c(c2)OCCN(C[C@H](O)CN2CCc4ccccc4C2)C3=O)C1 (stereo partly drawn) [Example 98, 4-[(2R)-3-(3,4-dihydro-1H-isoquinolin-2-yl)-2-hydroxy-propyl]-8-(1-methylpyrrolidin-3-yl)oxy-2,3-dihydro-1,4-benzoxazepin-5-one] |
| 1 to 100 | CC(=O)N1CC2(CC(Oc3ccc4c(c3)OCCN(C[C@H](O)CN3CCc5ccccc5C3)C4=O)C2)C1 [Example 174, 8-[(2-acetyl-2-azaspiro[3.3]heptan-6-yl)oxy]-4-[(2R)-3-(3,4-dihydro-1H-isoquinolin-2-yl)-2-hydroxy-propyl]-2,3-dihydro-1,4-benzoxazepin-5-one] |
| 100 to 1000 | O=C1c2ccc(CN3CCC4(CC3)COC4)cc2OCCN1C[C@H](O)CN1CCc2ccccc2C1 [Example 251, 4-[(2R)-3-(3,4-dihydro-1H-isoquinolin-2-yl)-2-hydroxypropyl]-8-(2-oxa-7-azaspiro[3.5]nonan-7-ylmethyl)-2,3-dihydro-1,4-benzoxazepin-5-one] |
| 1 to 100 | CC(=O)N1CCC(Oc2ccc3c(c2)OCCN(C[C@H](O)CN2CCc4ccccc4C2)C3=O)CC1 [Example 78, 8-[(1-acetyl-4-piperidyl)oxy]-4-[(2R)-3-(3,4-dihydro-1H-isoquinolin-2-yl)-2-hydroxy-propyl]-2,3-dihydro-1,4-benzoxazepin-5-one] |
| 100 to 1000 | O=C1c2ccccc2OCCN1CC(O)CN1CCc2ccccc2C1 (centres unmarked) [Example 147, 4-[3-(3,4-dihydro-1H-isoquinolin-2-yl)-2-hydroxy-propyl]-2,3-dihydro-1,4-benzoxazepin-5-one] |
| 1 to 100 | CN1CCN(Cc2ccc3c(c2)OCCN(C[C@H](O)CN2CCc4ccccc4C2)C3=O)CC1 [Example 54, 4-[(2R)-3-(3,4-dihydro-1H-isoquinolin-2-yl)-2-hydroxy-propyl]-8-[(4-methylpiperazin-1-yl)methyl]-2,3-dihydro-1,4-benzoxazepin-5-one] |
| 1 to 100 | CC(=O)N1CCC(c2ccc3c(c2)OCCN(C[C@H](O)CN2CCc4ccccc4C2)C3=O)CC1 [Example 17, 8-(1-acetyl-4-piperidyl)-4-[(2R)-3-(3,4-dihydro-1H-isoquinolin-2-yl)-2-hydroxy-propyl]-2,3-dihydro-1,4-benzoxazepin-5-one] |
